From US9210927B2, “Pesticidal compositions and processes related thereto” (Dow AgroSciences LLC, priority 2013, dated 2015)
Read-outs that look alike come from different tables or passages of the source.

Tests used:
Assay type in all cases: in vivo
BAW (Spodoptera exigua) = assay: Bioassays on Beet Armyworm (BAW), 128-well diet tray assay; conditions: Spodoptera exigua, 168 h, read-out: BAW Rating
Outline: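 Diet surface dosed at 50 μg/cm^2 (acetone-water 90:10 vehicle), dried, then infested with second-instar larvae, one to five per well. After five to seven days at 25° C. under 14:10 light-dark, mortality per well was scored and averaged over eight wells.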

CEW (Helicoverpa zea) = assay: Bioassays on Corn Earworm (CEW), 128-well diet tray assay; conditions: Helicoverpa zea, 168 h; percent mortality, second instar larvae, 50 μg/cm^2 on artificial diet, five to seven days, 25° C.; read-out: CEW Rating
Outline: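 Percent larval mortality, averaged across eight wells, read after five to seven days at 25 °C under 14:10 light-dark. Each well held one to five second-instar larvae on diet surface-dosed at 50 μg/cm^2 (compound applied in acetone-water 90:10, then dried).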

GPA (Myzus persicae) = assay: Bioassays on Green Peach Aphid (GPA), foliar spray on cabbage seedlings; conditions: 72 h, corrected % control (Abbott), 200 ppm spray on cabbage seedlings, three days, read-out: GPA Rating
Protocol: Bioassays on Green Peach Aphid (“GPA”) (Myzus persicae) Certain molecules disclosed in this document were tested against GPA using procedures described in the following example. In the reporting of the results, the “GPA Rating Table” was used (See Table Section). Cabbage seedlings grown in 3-inch pots, with 2-3 small (3-5 cm) true leaves, were used as test substrate. The seedlings were infested with 20-50 GPA (wingless adult and nymph stages) one day prior to chemical application. Four pots with individual seedlings were used for each treatment. Test compounds (2 mg) were dissolved in 2 mL of acetone/MeOH (1:1) solvent, forming stock solutions of 1000 ppm test compound. The stock solutions were diluted 5× with 0.025% Tween 20 in H2O to obtain the solution at 200 ppm test compound. A hand-held aspirator-type sprayer was used for spraying a solution to both sides of […] leaves until runoff. Reference plants (solvent check) were sprayed with the diluent only containing 20% by volume of acetone/MeOH (1:1) solvent. Treated plants were held in a holding room for three days at approximately 25° C. and ambient relative humidity (RH) prior to grading. Evaluation was conducted by counting the number of live aphids per plant under a microscope. Percent Control was measured by using Abbott's correction formula (W. S. Abbott, “A Method of Computing the Effectiveness of an Insecticide” J. Econ. Entomol. 18 (1925), pp. 265-267) as follows. Corrected % Control=100*(X−Y)/X • where • X=No. of live aphids on solvent check plants and • Y=No. of live aphids on treated plants The results are indicated in the table entitled “Table 3: Assay Results” (See Table Section).

CL (Trichoplusia ni) = assay: Bioassays on Cabbage Looper (CL), 128-well diet tray assay; conditions: 168 h, percent mortality, second instar larvae, 50 μg/cm^2 on artificial diet, five to seven days, 25° C., read-out: CL Rating
Protocol: Bioassays on Beet Armyworm (“BAW”) and Corn Earworm (“CEW”) and Cabbage Looper (“CL”)
Certain molecules disclosed in this document were tested against BAW and CEW and CL using procedures described in the following examples. In the reporting of the results, the “BAW & CEW & CL Rating Table” was used (See Table Section).
Bioassays on CL (Trichoplusia ni)
Bioassays on CL were conducted using a 128-well diet tray assay. One to five second instar CL larvae were placed in each well (3 mL) of the diet tray that had been previously filled with 1 mL of artificial diet to which 50 μg/cm^2 of the test compound (dissolved in 50 μL of 90:10 acetone-water mixture) had been applied (to each of eight wells) and then allowed to dry. Trays were covered with a clear self-adhesive cover, and held at 25° C., 14:10 light-dark for five to seven days. Percent mortality was recorded for the larvae in each well; activity in the eight wells was then averaged. The results are indicated in the table entitled “Table 3A: Assay Results” (See Table Section).

[1] = percent mortality, second instar larvae, 50 μg/cm^2 on artificial diet, five to seven days, 25° C.

SMILES	pest or weed control at 50 µg/cm2 (BAW (Spodoptera exigua)) [%]	pest or weed control at 50 µg/cm2 (CEW (Helicoverpa zea)) [%]	pest or weed control at 200 ppm (GPA (Myzus persicae)) [%]	pest or weed control at 50 µg/cm2 (BAW (Spodoptera exigua); [1]) [%]	pest or weed control at 50 µg/cm2 (CL (Trichoplusia ni)) [%]
O=C(NCc1ccc(/C=C/C(c2cc(Cl)cc(Cl)c2)C(F)(F)F)cc1)C1CC1 (stereo not shown) [CC2]	50 to 100	50 to 100	0 to 80	–	–
CCC(=O)NCc1ccc(/C=C/C(c2cc(Cl)cc(Cl)c2)C(F)(F)F)cc1 (stereo not shown) [CC4]	50 to 100	0 to 50	0 to 80	–	–
O=C(NCc1ccc(/C=C/C(c2cc(Cl)c(Cl)c(Cl)c2)C(F)(F)F)cc1)C1CC1 (stereo not shown) [CC5]	50 to 100	50 to 100	0 to 80	–	–
O=C(CC(F)(F)F)NCc1ccc(/C=C/C(c2cc(Cl)c(Cl)c(Cl)c2)C(F)(F)F)cc1 (stereo not shown) [CC6]	50 to 100	50 to 100	0 to 80	–	–
CC(=O)NCc1ccc(/C=C/C(c2cc(Cl)cc(Cl)c2)C(F)(F)F)cc1Cl (stereo not shown) [CC7, (E)-N-(2-Chloro-4-(3-(3,5-dichlorophenyl)-4,4,4-trifluorobut-1-en-1-yl)benzyl)acetamide]	50 to 100	50 to 100	0 to 80	–	–
O=C(CC(F)(F)F)NCc1ccc(/C=C/C(c2cc(Cl)cc(Cl)c2)C(F)(F)F)cc1Cl (stereo not shown) [CC9]	50 to 100	50 to 100	0 to 80	–	–
O=C(NCc1ccc(/C=C/C(c2cc(Cl)c(Cl)c(Cl)c2)C(F)(F)F)cc1Cl)C1CC1 (stereo not shown) [CC11]	50 to 100	50 to 100	0 to 80	–	–
O=C(NCc1ccc(/C=C/C(c2cc(Cl)c(F)c(Cl)c2)C(F)(F)F)cc1Cl)C1CC1 (stereo not shown) [CC15]	50 to 100	50 to 100	0 to 80	–	–
O=C(NCc1ccc(/C=C/C(c2ccc(Cl)c(Cl)c2)C(F)(F)F)cc1Cl)C1CC1 (stereo not shown) [CC17]	50 to 100	50 to 100	0 to 80	–	–
O=C(CC(F)(F)F)NCc1ccc(/C=C/C(c2ccc(Cl)c(Cl)c2)C(F)(F)F)cc1Cl (stereo not shown) [CC18]	50 to 100	50 to 100	0 to 80	–	–
CSCCC(=O)NCc1ccc(/C=C/C(c2cc(Cl)c(Cl)c(Cl)c2)C(F)(F)F)cc1Cl (stereo not shown) [CC19]	50 to 100	50 to 100	0 to 80	–	–
O=C(NCc1ccc(/C=C/C(c2cc(Cl)c(Cl)c(Cl)c2)C(F)(F)F)cc1C(F)(F)F)C1CC1 (stereo not shown) [CC22]	50 to 100	50 to 100	0 to 80	–	–
O=C(NCc1ccc(/C=C/C(c2cc(Cl)c(Cl)c(Cl)c2)C(F)(F)F)cc1C(F)(F)F)c1cccnc1 (stereo not shown) [CC23]	50 to 100	50 to 100	0 to 80	–	–
O=C(CC(F)(F)F)NCc1ccc(/C=C/C(c2cc(Cl)c(Cl)c(Cl)c2)C(F)(F)F)cc1Br (stereo not shown) [CC25]	50 to 100	50 to 100	0 to 80	–	–
O=C(C1CC1)N(Cc1ccccn1)Cc1ccc(/C=C/C(c2cc(Cl)c(Cl)c(Cl)c2)C(F)(F)F)cc1C(F)(F)F (stereo not shown) [CC29, (E)-N-(Pyridin-2-ylmethyl)-N-(4-(4,4,4-trifluoro-3-(3,4,5-trichlorophenyl)but-1-enyl)-2-(trifluoromethyl)benzyl)cyclopropanecarboxamide]	50 to 100	50 to 100	0 to 80	–	–
CCNC(=O)NCc1ccc(/C=C/C(c2cc(Cl)c(Cl)c(Cl)c2)C(F)(F)F)cc1C(F)(F)F (stereo not shown) [CC32]	50 to 100	50 to 100	0 to 80	–	–

SMILES	pest or weed control at 50 µg/cm2 (BAW (Spodoptera exigua)) [%]	pest or weed control at 50 µg/cm2 (CEW (Helicoverpa zea)) [%]	pest or weed control at 200 ppm (GPA (Myzus persicae)) [%]	pest or weed control at 50 µg/cm2 (BAW (Spodoptera exigua); [1]) [%]	pest or weed control at 50 µg/cm2 (CL (Trichoplusia ni)) [%]
CCNC(=O)NCc1ccc(/C=C/C(c2cc(Cl)c(Cl)c(Cl)c2)C(F)(F)F)cc1Br (stereo not shown) [CC33]	50 to 100	50 to 100	0 to 80	–	–
O=C(NCc1ccc(/C=C/C(c2cc(Cl)c(Cl)c(Cl)c2)C(F)(F)F)cc1Cl)N1CCOCC1 (stereo not shown) [CC34]	50 to 100	50 to 100	0 to 80	–	–
FC(F)(F)C(/C=C/c1ccc(CNc2ccccn2)c(Cl)c1)c1cc(Cl)c(Cl)c(Cl)c1 (stereo not shown) [CC43, (E)-N-(2-Chloro-4-(4,4,4-trifluoro-3-(3,4,5-trichlorophenyl)but-1-en-1-yl)benzyl)pyridin-2-amine]	50 to 100	0 to 50	0 to 80	–	–
O=C(CC(F)(F)F)NCc1ncc(/C=C/C(c2cc(Cl)c(Cl)c(Cl)c2)C(F)(F)F)cc1Cl (stereo not shown) [CC44, (E)-N-((3-Chloro-5-(4,4,4-trifluoro-3-(3,4,5-trichlorophenyl)-but-1-en-1-yl)pyridin-2-yl)methyl)-3,3,3-trifluoropropanamide]	50 to 100	50 to 100	0 to 80	–	–
CCNC(=O)N(C)NC(=O)c1ccc(/C=C/C(c2cc(Cl)c(Cl)c(Cl)c2)C(F)(F)F)cc1Br (stereo not shown) [Compound F1, (E)-2-(2-Bromo-4-(4,4,4-trifluoro-3-(3,4,5-trichlorophenyl)but-1-en-1-yl)benzoyl)-N-ethyl-1-methylhydrazinecarboxamide]	–	–	–	50 to 100	50 to 100
O=C(NCC(F)(F)F)NNC(=O)c1ccc(/C=C/C(c2cc(Cl)c(Cl)c(Cl)c2)C(F)(F)F)cc1Br (stereo not shown) [Compound F7, (E)-2-(2-Bromo-4-(4,4,4-trifluoro-3-(3,4,5-trichlorophenyl)but-1-en-1-yl)benzoyl)-N-(2,2,2-trifluoroethyl)hydrazinecarboxamide]	–	–	–	50 to 100	50 to 100
FC(F)(F)C(/C=C/c1ccc(-n2cncn2)cc1)c1ccc(Cl)c(Cl)c1 (stereo not shown) [DC12]	50 to 100	50 to 100	0 to 80	–	–
COc1c(Cl)cc(C(/C=C/c2ccc(-n3cncn3)c(C#N)c2)C(F)(F)F)cc1Cl (stereo not shown) [DC34]	50 to 100	50 to 100	0 to 80	–	–
N#Cc1cc(/C=C/C(c2cc(Cl)c(F)c(Cl)c2)C(F)(F)F)ccc1-n1cncn1 (stereo not shown) [DC35]	50 to 100	50 to 100	0 to 80	–	–
CN(NC(=O)c1ccc(/C=C/C(c2cc(Cl)c(Cl)c(Cl)c2)C(F)(F)F)cc1Br)C(=O)NCC(F)(F)F (stereo not shown) [FA1]	–	–	–	50 to 100	50 to 100
CN(NC(=O)c1ccc(/C=C/C(c2cc(Cl)c(Cl)c(Cl)c2)C(F)(F)F)cc1C(F)(F)F)C(=O)NCC(F)(F)F (stereo not shown) [FA2]	–	–	–	50 to 100	50 to 100
CN(NC(=O)c1ccc(/C=C/C(c2cc(Br)cc(Br)c2)C(F)(F)F)cc1C(F)(F)F)C(=O)NCC(F)(F)F (stereo not shown) [FA4]	–	–	–	50 to 100	50 to 100
CN(NC(=O)c1ccc(/C=C/C(c2cc(Br)c(Cl)c(Br)c2)C(F)(F)F)cc1C(F)(F)F)C(=O)NCC(F)(F)F (stereo not shown) [FA5]	–	–	–	50 to 100	50 to 100
CN(NC(=O)c1ccc(/C=C/C(c2cc(Cl)c(Br)c(Cl)c2)C(F)(F)F)cc1C(F)(F)F)C(=O)NCC(F)(F)F (stereo not shown) [FA6]	–	–	–	50 to 100	50 to 100
CN(NC(=O)c1ccc(/C=C/C(c2cc(Cl)c(F)c(Cl)c2)C(F)(F)F)cc1C(F)(F)F)C(=O)NCC(F)(F)F (stereo not shown) [FA7]	–	–	–	50 to 100	50 to 100
